The source of these data is US9452170B2, “Compounds and methods for inducing chondrogenesis” (The California Institute for Biomedical Research, priority 2013, dated 2016).

The nature of data set [1]: Quantitation of compounds in rat knee joint extract after intra-articular injection (LC-MS/MS). The format is in vivo. The conditions noted are these: knee joint extract (whole joint, acetonitrile extract), other: intra-articular injection, 30 μL of 100 μM solution, 30 μL of 100 μM intra-articular, read-out: Concentration observed in extract; for concentration at 0 h: T = 0 h; for concentration at 0.5 h: T = 0.5 h; for concentration at 1 h: T = 1 h; for concentration at 2 h: T = 2 h. On the procedure:
LC-MS/MS analysis for Chondrogenesis compounds were performed using an API 3000 equipped with an Agilent 1100 HPLC and a Leap Technologies autosampler. A HPLC Phenomenex 5 micron, 100 A Luna C18 (2) analytical column with dimensions of 2.0×50 mm (Part No. 00B-4252-B0) at a temperature of 30 C, flow rate of 0.6 mL/min, injection volume of 10 uL, and a 6.0 min run time was used. Mobile phase A1 was 0.1% formic acid in water and Mobile phase B1 was 0.1% formic acid in acetonitrile. The gradient was 90% A1/10% B1 at time 0; 90% A1/10% B1 at time 1.0 min; 10% A1/90% B1 at time 2.0 min; 10% A1/90% B1 at time 4.0 min; 90% A1/10% B1 at time 4.10 min; 90% A1/10% B1 at time 6.0 min. Analytes and internal standard quantitation were performed using Multiple Reaction Monitoring (MRM) quantitation method. Listed below are specific methods used to dose and measure exposure in plasma and the observed concentration in joint extract.
Calibration standard curve was prepared by serial dilution of a concentrated, spike solution of the compound in internal standard diluents. Internal standard diluent was prepared by dissolving the internal standard compound at a certain concentration in acetonitrile. Rat knee joint samples for each time points were individually crushed and transferred into each centrifuge tube and added 1.0-mL of internal standard diluent. Each centrifuge tube was vortexed and centrifuged for 30 minutes. From each tube, supernatant was removed and injected onto the column for analysis. In addition, plasma samples were obtained by retro-orbital bleeds into heparin coated tubes and stored at −80 C and later processed by analogy to the protocol described above for rat plasma samples.
30 μL of 100 μM compound solution (PBS with 0.1% DMSO) was injected into the intra-articular space of the right hinder knee of each animal. The animals were euthanized at indicated time points (0 hr, 0.5 hr, 1 hr, 2 hr, 4 hr and 6 hr). Four animals were used for each timepoint. The injected knee joints were harvested, flash freeze in liquid nitrogen. The whole joints were grounded into powder while frozen, mixed with 1 mL internal standard-containing acetonitrile, incubated at 4° C. overnight, vortexed and centrifuged for 30 min. The supernatant from each sample was analyzed using LC-MS/MS. Data shown in Table 2 indicates the observed concentration in knee extract. ND=Not determined.

The test system of the next data set is Human MSCs. The data set is described as follows: Human chondrocyte differentiation assay (immunostaining for type II collagen, Sox9 and COMP). Type of data set: cell-based. The settings on record: 168 h, compound 1 μM, 7 days, vs DMSO vehicle, read-out: Biological Activity (increase in staining intensity compared to vehicle control). On the procedure: Human MSCs (50,000) were plated into each well of a 96-well plate and cultured overnight. Compounds (in DMSO solution) were added to the cells at a final concentration of 1 μM, and the cells were cultured for 7 days at 5% CO2, 37° C. The cells were fixed with 10% formalin solution at room temperature for 10 min, and immunostained using antibodies specific for type II collagen (Abcam), Sox9 (Santa Cruz) and cartilage oligomeric matrix protein (COMP, Santa Cruz), and fluorescently labeled secondary antibodies (Li-Cor). The total intensity of the staining was measured using Oddyssey CLx imaging system (Li-Cor). Vehicle (DMSO) was used as control to determine the basal level of chondrocyte differentiation. […] Representative data are shown in Table 1 [A: >50% increase in staining intensity compared to vehicle control; B: 30-50% increase in staining intensity compared to vehicle control].

As for `CS(=O)(=O)c1ccc(C(=O)Nc2ccccc2S(=O)(=O)N2CCOCC2)cc1` [Compound 113], in data set [1], the concentration at 0 h is 566 ng/mL, the concentration at 0.5 h amounted to 25.3 ng/mL, the concentration at 1 h is 4.2 ng/mL and the concentration at 2 h is 0 ng/mL. The activation at 1 µM in the data set on Human MSCs was more than 50%.

With `COCCc1ccc(NC(=O)c2ccccc2C(=O)O)cc1` [Compound 21], in data set [1], the concentration at 0 h is 434 ng/mL, the concentration at 0.5 h worked out at 9.1 ng/mL, the concentration at 1 h amounted to 4.9 ng/mL and the concentration at 2 h worked out at 0 ng/mL. The activation at 1 µM with Human MSCs is more than 50%.

For the compound `CN(Cc1cccc(NC(=O)c2ccccc2C(=O)O)c1)S(C)(=O)=O` [Compound 73], in data set [1], the concentration at 0 h was 587 ng/mL, the concentration at 0.5 h worked out at 28.5 ng/mL, the concentration at 1 h is 9.41 ng/mL and the concentration at 2 h was 2.6 ng/mL. Further, in the data set on Human MSCs, the activation at 1 µM was more than 50%.

Regarding `O=C(Nc1ccccc1S(=O)(=O)N1CCOCC1)c1ccc(F)cc1` [Compound 123], in data set [1], the concentration at 0 h was 4430 ng/mL, the concentration at 0.5 h came out at 1100 ng/mL, the concentration at 1 h is 741 ng/mL and the concentration at 2 h was 338 ng/mL. For the same compound, the concentration at 4 h in data set [1] (T = 4 h) turned out to be 38 ng/mL. For the same compound, in data set [1] (T = 6 h), the concentration at 6 h worked out at 0 ng/mL. The activation at 1 µM in the data set with Human MSCs is more than 50%.

For `CC1COCCN1S(=O)(=O)c1ccccc1NC(=O)c1ccc(F)cc1` (centres unmarked) [Compound 128], in data set [1], the concentration at 0 h was determined as 7280 ng/mL, the concentration at 0.5 h was 2940 ng/mL, the concentration at 1 h was 1360 ng/mL and the concentration at 2 h was found to be 546 ng/mL. For the same compound, the activation at 1 µM with Human MSCs was more than 50%.

With `CNS(=O)(=O)c1ccc(N2Cc3ccccc3C2=O)cc1` [Compound 27], in data set [1], the concentration at 0 h amounted to 592 ng/mL, the concentration at 0.5 h was determined as 35.4 ng/mL, the concentration at 1 h was found to be 6.3 ng/mL and the concentration at 2 h turned out to be 2.5 ng/mL. In addition, in the data set with Human MSCs, the activation at 1 µM is more than 50%.

`COCCc1ccc(NC(=O)c2ccccc2NS(C)(=O)=O)cc1` [Compound 117]: in data set [1], the concentration at 0 h was 926 ng/mL, the concentration at 0.5 h worked out at 50.6 ng/mL, the concentration at 1 h was 4.4 ng/mL and the concentration at 2 h worked out at 0 ng/mL. Also, the activation at 1 µM in the data set on Human MSCs is more than 50%.

Consider `COCCc1ccc(NC(=O)c2ccccc2NS(=O)(=O)c2ccccc2)cc1` [Compound 156], for which, in data set [1], the concentration at 0 h came to 109 ng/mL, the concentration at 0.5 h was 3.5 ng/mL, the concentration at 1 h came out at 0 ng/mL and the concentration at 2 h is 0 ng/mL. Further, in the data set on Human MSCs, the activation at 1 µM is more than 50%.

As for `N#Cc1ccc(C(=O)Nc2ccccc2S(=O)(=O)N2CCOCC2)cc1` [Compound 62], in data set [1], the concentration at 0 h worked out at 411 ng/mL, the concentration at 0.5 h amounted to 109 ng/mL, the concentration at 1 h amounted to 52.6 ng/mL and the concentration at 2 h came to 15.7 ng/mL. For the same compound, the activation at 1 µM in the data set on Human MSCs is more than 50%.
